PubChem BioAssay AID1963439 (Molecular Pharmacology Branch, DTP, NCI, 2024)

Test system: NCI-H196 complex spheroids with HUVEC/MSC, growth % T/C
Assay: Anticancer human tumor NCI-H196 cell line growth inhibition [Asc];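 also: spheroids exposed to compound for 7 days before measurement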;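 as to viability, T/C: 100% = DMSO vehicle control wells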
Settings: for IC50: curve of first compound; for viability, T/C: stronger effect = lower value
In short: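 Stromal components (HUVEC and hMSC) are co-assembled with the cancer cells into multicellular spheroids. Drugs are then added singly or paired, at concentrations falling by half-log increments from a clinically achievable maximum, capped at 10 microM without known Cmax.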

C=C(F)C(=O)N1CCN(c2nc(OCC3CCCN3C)nc3c2CCN(c2cccc4cccc(Cl)c24)C3)CC1CC#N (stereo not given) + Cc1c(S(C)(=O)=O)c(-c2cc(F)cc(N3CCN(c4ccc(NS(=O)(=O)c5ccc(NC(CCN6CCC(C(=O)OCCCP(=O)(O)O)CC6)CSc6ccccc6)c(S(=O)(=O)C(F)(F)F)c5)cc4)CC3)c2)c(-c2ccc(Cl)cc2)n1C(C)C
IC50 (second compound 0.1 µM): > 10 µM | IC50 (second compound 0.316 µM): > 10 µM | IC50 (second compound 1 µM): 5.96 µM | IC50 (second compound 3.16 µM): 5.08 µM | IC50 (second compound 10 µM): 4.48 µM | viability, T/C (second compound 0.1 µM, first compound 0.0316 µM): 95.8% | viability, T/C (second compound 0.1 µM, first compound 0.1 µM): 94.5% | viability, T/C (second compound 0.1 µM, first compound 0.316 µM): 92% | viability, T/C (second compound 0.1 µM, first compound 1 µM): 99.9% | viability, T/C (second compound 0.1 µM, first compound 3.16 µM): 107% | viability, T/C (second compound 0.1 µM, first compound 10 µM): 74.8% | viability, T/C (second compound 0.316 µM, first compound 0.0316 µM): 87.6% | viability, T/C (second compound 0.316 µM, first compound 0.1 µM): 95% | viability, T/C (second compound 0.316 µM, first compound 0.316 µM): 99.3% | viability, T/C (second compound 0.316 µM, first compound 1 µM): 86.4% | viability, T/C (second compound 0.316 µM, first compound 3.16 µM): 87.4% | viability, T/C (second compound 0.316 µM, first compound 10 µM): 83.5% | viability, T/C (second compound 1 µM, first compound 0.0316 µM): 96.6% | viability, T/C (second compound 1 µM, first compound 0.1 µM): 81.3% | viability, T/C (second compound 1 µM, first compound 0.316 µM): 93.5% | viability, T/C (second compound 1 µM, first compound 1 µM): 74.9% | viability, T/C (second compound 1 µM, first compound 3.16 µM): 82% | viability, T/C (second compound 1 µM, first compound 10 µM): 25.5% | viability, T/C (second compound 3.16 µM, first compound 0.0316 µM): 82.7% | viability, T/C (second compound 3.16 µM, first compound 0.1 µM): 80.6% | viability, T/C (second compound 3.16 µM, first compound 0.316 µM): 78.5% | viability, T/C (second compound 3.16 µM, first compound 1 µM): 83.7% | viability, T/C (second compound 3.16 µM, first compound 3.16 µM): 85.5% | viability, T/C (second compound 3.16 µM, first compound 10 µM): 4.09% | viability, T/C (second compound 10 µM, first compound 0.0316 µM): 75.5% | viability, T/C (second compound 10 µM, first compound 0.1 µM): 70.1% | viability, T/C (second compound 10 µM, first compound 0.316 µM): 70.4% | viability, T/C (second compound 10 µM, first compound 1 µM): 67.1% | viability, T/C (second compound 10 µM, first compound 3.16 µM): 68.5% | viability, T/C (second compound 10 µM, first compound 10 µM): 8.1%

C=CC(=O)N1CCN(c2nc(=O)n(-c3c(C)ccnc3C(C)C)c3nc(-c4c(O)cccc4F)c(F)cc23)C(C)C1 (stereo not given) + CCN1C(C(=O)NC23CCC(C(=O)O)(CC2)CC3)C(c2cccc(Cl)c2F)C2(C(=O)Nc3cc(Cl)ccc32)C12CCCCC2
IC50 (second compound 0.03 µM): > 10 µM | IC50 (second compound 0.0949 µM): > 10 µM | IC50 (second compound 0.3 µM): > 10 µM | IC50 (second compound 0.949 µM): > 10 µM | IC50 (second compound 3 µM): > 10 µM | viability, T/C (second compound 0.03 µM, first compound 0.0316 µM): 104% | viability, T/C (second compound 0.03 µM, first compound 0.1 µM): 105% | viability, T/C (second compound 0.03 µM, first compound 0.316 µM): 104% | viability, T/C (second compound 0.03 µM, first compound 1 µM): 107% | viability, T/C (second compound 0.03 µM, first compound 3.16 µM): 121% | viability, T/C (second compound 0.03 µM, first compound 10 µM): 107% | viability, T/C (second compound 0.0949 µM, first compound 0.0316 µM): 111% | viability, T/C (second compound 0.0949 µM, first compound 0.1 µM): 111% | viability, T/C (second compound 0.0949 µM, first compound 0.316 µM): 121% | viability, T/C (second compound 0.0949 µM, first compound 1 µM): 112% | viability, T/C (second compound 0.0949 µM, first compound 3.16 µM): 106% | viability, T/C (second compound 0.0949 µM, first compound 10 µM): 103% | viability, T/C (second compound 0.3 µM, first compound 0.0316 µM): 106% | viability, T/C (second compound 0.3 µM, first compound 0.1 µM): 109% | viability, T/C (second compound 0.3 µM, first compound 0.316 µM): 108% | viability, T/C (second compound 0.3 µM, first compound 1 µM): 107% | viability, T/C (second compound 0.3 µM, first compound 3.16 µM): 117% | viability, T/C (second compound 0.3 µM, first compound 10 µM): 119% | viability, T/C (second compound 0.949 µM, first compound 0.0316 µM): 123% | viability, T/C (second compound 0.949 µM, first compound 0.1 µM): 110% | viability, T/C (second compound 0.949 µM, first compound 0.316 µM): 115% | viability, T/C (second compound 0.949 µM, first compound 1 µM): 110% | viability, T/C (second compound 0.949 µM, first compound 3.16 µM): 140% | viability, T/C (second compound 0.949 µM, first compound 10 µM): 110% | viability, T/C (second compound 3 µM, first compound 0.0316 µM): 116% | viability, T/C (second compound 3 µM, first compound 0.1 µM): 120% | viability, T/C (second compound 3 µM, first compound 0.316 µM): 115% | viability, T/C (second compound 3 µM, first compound 1 µM): 124% | viability, T/C (second compound 3 µM, first compound 3.16 µM): 135% | viability, T/C (second compound 3 µM, first compound 10 µM): 132%

CCN1C(C(=O)NC23CCC(C(=O)O)(CC2)CC3)C(c2cccc(Cl)c2F)C2(C(=O)Nc3cc(Cl)ccc32)C12CCCCC2 (stereo not given) + Cc1c(S(C)(=O)=O)c(-c2cc(F)cc(N3CCN(c4ccc(NS(=O)(=O)c5ccc(NC(CCN6CCC(C(=O)OCCCP(=O)(O)O)CC6)CSc6ccccc6)c(S(=O)(=O)C(F)(F)F)c5)cc4)CC3)c2)c(-c2ccc(Cl)cc2)n1C(C)C
IC50 (second compound 0.1 µM): > 3 µM | IC50 (second compound 0.316 µM): > 3 µM | IC50 (second compound 1 µM): > 3 µM | IC50 (second compound 3.16 µM): 2.85 µM | IC50 (second compound 10 µM): 1.66 µM | viability, T/C (second compound 0.1 µM, first compound 0.00949 µM): 89.3% | viability, T/C (second compound 0.1 µM, first compound 0.03 µM): 104% | viability, T/C (second compound 0.1 µM, first compound 0.0949 µM): 91.2% | viability, T/C (second compound 0.1 µM, first compound 0.3 µM): 91.5% | viability, T/C (second compound 0.1 µM, first compound 0.949 µM): 92.2% | viability, T/C (second compound 0.1 µM, first compound 3 µM): 86.4% | viability, T/C (second compound 0.316 µM, first compound 0.00949 µM): 89.6% | viability, T/C (second compound 0.316 µM, first compound 0.03 µM): 89.7% | viability, T/C (second compound 0.316 µM, first compound 0.0949 µM): 95.5% | viability, T/C (second compound 0.316 µM, first compound 0.3 µM): 85.3% | viability, T/C (second compound 0.316 µM, first compound 0.949 µM): 88.3% | viability, T/C (second compound 0.316 µM, first compound 3 µM): 69.4% | viability, T/C (second compound 1 µM, first compound 0.00949 µM): 84.3% | viability, T/C (second compound 1 µM, first compound 0.03 µM): 83% | viability, T/C (second compound 1 µM, first compound 0.0949 µM): 87.5% | viability, T/C (second compound 1 µM, first compound 0.3 µM): 80.8% | viability, T/C (second compound 1 µM, first compound 0.949 µM): 78.9% | viability, T/C (second compound 1 µM, first compound 3 µM): 62.6% | viability, T/C (second compound 3.16 µM, first compound 0.00949 µM): 77.9% | viability, T/C (second compound 3.16 µM, first compound 0.03 µM): 82.5% | viability, T/C (second compound 3.16 µM, first compound 0.0949 µM): 72.5% | viability, T/C (second compound 3.16 µM, first compound 0.3 µM): 72.3% | viability, T/C (second compound 3.16 µM, first compound 0.949 µM): 66.2% | viability, T/C (second compound 3.16 µM, first compound 3 µM): 48.7% | viability, T/C (second compound 10 µM, first compound 0.00949 µM): 70.2% | viability, T/C (second compound 10 µM, first compound 0.03 µM): 79.1% | viability, T/C (second compound 10 µM, first compound 0.0949 µM): 70.1% | viability, T/C (second compound 10 µM, first compound 0.3 µM): 73.2% | viability, T/C (second compound 10 µM, first compound 0.949 µM): 59% | viability, T/C (second compound 10 µM, first compound 3 µM): 38.6%
